Laboratory results reported in ChEMBL document CHEMBL1130375, “Pyridazinones with a pendant acylsulfonamide moiety as endothelin receptor antagonists” (Bioorg Med Chem Lett, 1997).

What was measured:
Endothelin-1 receptor [1] = target: T1, Endothelin-1 receptor (Rattus norvegicus, UniProt P26684); assay: Compound was evaluated for the antagonism at the Endothelin A receptor (G-protein coupled endothelin A); type: functional; conditions: read-out: pA2 (converted)
T1 sequence (P26684 whole entry): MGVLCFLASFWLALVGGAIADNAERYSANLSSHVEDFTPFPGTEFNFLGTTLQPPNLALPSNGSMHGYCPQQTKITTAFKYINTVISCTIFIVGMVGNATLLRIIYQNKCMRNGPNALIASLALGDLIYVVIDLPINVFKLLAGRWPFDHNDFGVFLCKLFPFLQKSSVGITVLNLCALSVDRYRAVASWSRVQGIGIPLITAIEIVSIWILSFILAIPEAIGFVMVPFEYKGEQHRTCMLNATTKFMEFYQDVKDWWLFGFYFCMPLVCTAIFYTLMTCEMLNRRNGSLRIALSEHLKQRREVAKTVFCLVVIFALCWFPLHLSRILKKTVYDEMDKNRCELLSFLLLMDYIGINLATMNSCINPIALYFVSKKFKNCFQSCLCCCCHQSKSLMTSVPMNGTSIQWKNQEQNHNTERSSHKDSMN

Endothelin-1 receptor [2] = target: T1, Endothelin-1 receptor; assay: Inhibition of specific binding of [125I]ET1 (endothelin 1) to the endothelin A receptor of rat aorta membranes; type: cell membranes, Membrane
[3] = target: T2, Endothelin receptor type B (Sus scrofa, UniProt P35463); assay: Inhibition of specific binding of [125I]ET1 (endothelin 1) to endothelin B receptor of porcine kidney membranes
T2 sequence (P35463 whole entry): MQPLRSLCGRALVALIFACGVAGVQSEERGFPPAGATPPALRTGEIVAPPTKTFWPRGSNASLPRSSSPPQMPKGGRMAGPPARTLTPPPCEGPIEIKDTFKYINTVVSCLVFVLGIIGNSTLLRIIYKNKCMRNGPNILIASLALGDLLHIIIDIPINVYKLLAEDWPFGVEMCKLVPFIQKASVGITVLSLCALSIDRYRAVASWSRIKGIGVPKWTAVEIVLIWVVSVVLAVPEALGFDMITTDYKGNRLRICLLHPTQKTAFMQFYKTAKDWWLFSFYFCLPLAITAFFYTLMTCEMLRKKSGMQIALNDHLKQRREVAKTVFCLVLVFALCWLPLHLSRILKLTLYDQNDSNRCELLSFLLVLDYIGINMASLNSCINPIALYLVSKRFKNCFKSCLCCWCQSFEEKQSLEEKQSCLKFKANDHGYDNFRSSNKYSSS

Endothelin-1 receptor [4] = target: T1, Endothelin-1 receptor; assay: Compound was evaluated for the antagonism at the Endothelin A receptor in isolated rat aortic rings; type: functional; conditions: read-out: pA2 (converted)
[5] = target: T3, Endothelin receptor type B (Homo sapiens, UniProt P24530); assay: Compound was evaluated for the antagonism at the Endothelin B receptor in isolated rabbit jugularis vein; type: functional, Oryctolagus cuniculus; conditions: target entry is the homologue from another species; read-out: pA2 (converted)
T3 sequence (P24530 whole entry): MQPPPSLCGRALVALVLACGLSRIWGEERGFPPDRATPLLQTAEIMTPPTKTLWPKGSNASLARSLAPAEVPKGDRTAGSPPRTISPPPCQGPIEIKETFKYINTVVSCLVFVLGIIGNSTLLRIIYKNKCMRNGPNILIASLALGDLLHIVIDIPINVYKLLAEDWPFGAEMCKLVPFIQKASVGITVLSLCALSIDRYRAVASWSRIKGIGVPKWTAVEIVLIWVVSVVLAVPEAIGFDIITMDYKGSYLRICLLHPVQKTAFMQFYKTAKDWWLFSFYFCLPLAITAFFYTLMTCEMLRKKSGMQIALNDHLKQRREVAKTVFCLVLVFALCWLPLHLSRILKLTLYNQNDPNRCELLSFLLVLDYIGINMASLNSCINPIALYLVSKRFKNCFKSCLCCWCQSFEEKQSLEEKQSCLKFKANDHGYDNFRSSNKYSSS

| Kb (Endothelin-1 receptor [1]) [µM] | IC50 (Endothelin-1 receptor [2]) [µM] | IC50 [3] [µM] | Kb (Endothelin-1 receptor [4]) [µM] | Kb [5] [µM] | Compound |
| --- | --- | --- | --- | --- | --- |
| 0.631 | 0.034 | 2.9 | – | – | Cc1ccc(=O)n(C(C(=O)NS(=O)(=O)c2ccc(C(C)C)cc2)c2ccc3c(c2)OCO3)n1 (stereo not given) |
| – | 0.032 | 2 | – | – | Cc1ccc(=O)n(C(C(=O)NS(=O)(=O)c2ccc(C(C)(C)C)cc2)c2ccc3c(c2)OCO3)n1 (stereo not given) |
| – | 4 | > 100 | – | – | CC(C)c1ccc(S(=O)(=O)NC(=O)C(c2ccc3c(c2)OCO3)n2nc(C(C)(C)C)ccc2=O)cc1 (stereo not given) |
| – | 0.34 | 5.2 | – | – | Cc1cc(=O)n(C(C(=O)NS(=O)(=O)c2ccc(C(C)C)cc2)c2ccc3c(c2)OCO3)nc1C (stereo not given) |
| – | 0.029 | 3.5 | 1.26 | 1.58 | Cc1cc(C)c(=O)n(C(C(=O)NS(=O)(=O)c2ccc(C(C)C)cc2)c2ccc3c(c2)OCO3)n1 (stereo not given) |
| – | 0.23 | > 100 | – | – | Cc1ccc(=O)n(C(C(=O)NS(=O)(=O)c2ccc(Br)cc2)c2ccc3c(c2)OCO3)n1 (stereo not given) |
| – | 0.032 | 2.6 | – | – | CCc1cc(C)nn(C(C(=O)NS(=O)(=O)c2ccc(C(C)C)cc2)c2ccc3c(c2)OCO3)c1=O (stereo not given) |
| – | 0.29 | 4.5 | – | – | CCCc1cc(C)c(=O)n(C(C(=O)NS(=O)(=O)c2ccc(C(C)C)cc2)c2ccc3c(c2)OCO3)n1 (stereo not given) |
| – | 2.6 | > 100 | – | – | Cc1cc(C)c(=O)n(C(C(=O)NS(=O)(=O)c2ccc(C(C)(C)C)cc2)c2ccc3c(c2)OCO3)n1 (single isomer, unassigned; form 1) |
| – | 0.018 | 0.55 | – | – | Cc1cc(C)c(=O)n(C(C(=O)NS(=O)(=O)c2ccc(C(C)(C)C)cc2)c2ccc3c(c2)OCO3)n1 (single isomer, unassigned; form 2) |
| – | 0.02 | 1.2 | – | – | Cc1cc(C)c(=O)n(C(C(=O)NS(=O)(=O)c2ccc(C(C)(C)C)cc2)c2ccc3c(c2)OCO3)n1 (stereo in doubt; 2q) |

The remaining lines, values behind:

| Compound | Kb (Endothelin-1 receptor [1]) [µM] | IC50 (Endothelin-1 receptor [2]) [µM] | IC50 [3] [µM] | Kb (Endothelin-1 receptor [4]) [µM] | Kb [5] [µM] |
| --- | --- | --- | --- | --- | --- |
| CCCc1cc(C(=O)O)ccc1OC(C(=O)NS(=O)(=O)c1ccc(C(C)C)cc1)c1ccc2c(c1)OCO2 (stereo not given) | 0.00316 | 0.041 | 0.9 | – | – |
| CCCc1ccc(=O)n(C(C(=O)NS(=O)(=O)c2ccc(C(C)C)cc2)c2ccc3c(c2)OCO3)n1 (stereo not given) | – | 0.64 | 8.4 | – | – |
| COc1ccc(C2=NN(C(C(=O)NS(=O)(=O)c3ccc(C(C)C)cc3)c3ccc4c(c3)OCO4)C(=O)CC2)cc1 (stereo not given) | – | 2.9 | 4.2 | – | – |
| COc1ccc(S(=O)(=O)NC(=O)C(c2ccc3c(c2)OCO3)n2nc(C)ccc2=O)cc1 (stereo not given) | – | 0.16 | > 100 | – | – |
| COc1ccc(C2=NN(C(C(=O)NS(=O)(=O)c3ccc(C(C)C)cc3)c3ccc4c(c3)OCO4)C(=O)CC2)cc1OC (stereo not given) | – | 4.1 | > 100 | – | – |
| CC(C)c1ccc(S(=O)(=O)NC(=O)C(c2ccc3c(c2)OCO3)N2N=C(c3cccs3)CCC2=O)cc1 (stereo not given) | – | 3.2 | > 100 | – | – |
| Cc1ccc(=O)n(C(C(=O)NS(=O)(=O)c2ccc(-c3ccccc3)cc2)c2ccc3c(c2)OCO3)n1 (stereo not given) | – | 0.24 | 2.4 | – | – |
| O=C(O)C(c1ccc2c(c1)OCO2)N1N=C(c2ccccc2)CCC1=O (stereo not given) | – | > 100 | > 100 | – | – |
| CC(C)c1ccc(S(=O)(=O)NC(=O)C(c2ccc3c(c2)OCO3)N2N=C(c3ccc(Cl)cc3)CCC2=O)cc1 (stereo not given) | – | 2.7 | 6.4 | – | – |
| CC(C)c1ccc(S(=O)(=O)NC(=O)C(c2ccc3c(c2)OCO3)n2nc(C3CC3)ccc2=O)cc1 (stereo not given) | – | 0.26 | 2.6 | – | – |
| COc1ccc(C2=NN(C(C(=O)NS(=O)(=O)c3ccc(C(C)C)cc3)c3ccc4c(c3)OCO4)C(=O)CC2)c(OC)c1 (stereo not given) | – | > 100 | > 100 | – | – |
| CC(C)c1ccc(S(=O)(=O)NC(=O)C(c2ccc3c(c2)OCO3)N2N=C(c3ccccc3)CCC2=O)cc1 (stereo not given) | – | 2.6 | > 100 | – | – |
| CC(C)c1ccc(S(=O)(=O)NC(=O)C(c2ccc3c(c2)OCO3)n2nc3c(cc2=O)CCC3)cc1 (stereo not given) | – | 2.5 | 1.7 | – | – |
| COc1ccc(OC)c(C2=NN(C(C(=O)NS(=O)(=O)c3ccc(C(C)C)cc3)c3ccc4c(c3)OCO4)C(=O)CC2)c1 (stereo not given) | – | > 100 | > 100 | – | – |
| COc1ccc(-c2cc(C)c(=O)n(C(C(=O)NS(=O)(=O)c3ccc(C(C)C)cc3)c3ccc4c(c3)OCO4)n2)cc1 (stereo not given) | – | 4 | 7.7 | – | – |
| Cc1ccc(=O)n(C(C(=O)NS(=O)(=O)c2ccccc2)c2ccc3c(c2)OCO3)n1 (stereo not given) | – | 0.23 | > 100 | – | – |
| COc1ccc(-c2ccc(=O)n(C(C(=O)NS(=O)(=O)c3ccc(C(C)C)cc3)c3ccc4c(c3)OCO4)n2)cc1 (stereo not given) | – | 3.2 | 5.7 | – | – |
